According to ChEMBL document CHEMBL2163248, “Classification of inhibitors of hepatic organic anion transporting polypeptides (OATPs): influence of protein expression on drug-drug interactions” (J Med Chem, 2012):

Columns and labels:
[1] = target: T1, Solute carrier organic anion transporter family member 1B3 (Homo sapiens, UniProt Q9NPD5); experiment: Inhibition of human liver OATP1B3 expressed in HEK293 Flp-In cells assessed as reduction in [3H]E17-betaG uptake at 20 uM incubated for 5 mins by scintillation counting; conditions: hek293, 5 min
T1 sequence (Q9NPD5 whole entry): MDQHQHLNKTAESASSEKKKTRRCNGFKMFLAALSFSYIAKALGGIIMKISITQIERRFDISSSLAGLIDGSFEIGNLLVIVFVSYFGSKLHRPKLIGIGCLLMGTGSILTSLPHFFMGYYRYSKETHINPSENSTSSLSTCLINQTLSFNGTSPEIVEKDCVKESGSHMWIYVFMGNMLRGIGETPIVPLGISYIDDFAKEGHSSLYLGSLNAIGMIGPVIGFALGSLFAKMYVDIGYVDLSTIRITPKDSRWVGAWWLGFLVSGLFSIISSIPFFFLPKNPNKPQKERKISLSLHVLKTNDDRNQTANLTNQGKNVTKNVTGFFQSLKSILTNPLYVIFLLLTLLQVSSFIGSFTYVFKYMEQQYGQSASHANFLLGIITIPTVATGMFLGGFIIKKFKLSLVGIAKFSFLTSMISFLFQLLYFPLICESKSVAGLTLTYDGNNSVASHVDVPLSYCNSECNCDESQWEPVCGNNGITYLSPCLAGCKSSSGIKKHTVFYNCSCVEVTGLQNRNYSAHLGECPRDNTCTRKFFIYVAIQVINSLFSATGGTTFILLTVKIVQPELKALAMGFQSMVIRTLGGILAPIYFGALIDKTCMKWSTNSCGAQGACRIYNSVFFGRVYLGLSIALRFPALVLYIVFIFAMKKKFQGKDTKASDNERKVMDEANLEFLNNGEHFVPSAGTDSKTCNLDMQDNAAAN

[2] = target: T2, Solute carrier organic anion transporter family member 1B1 (Homo sapiens, UniProt Q9Y6L6); experiment: Inhibition of human liver OATP1B1 expressed in HEK293 Flp-In cells assessed as reduction in E17-betaG uptake by scintillation counting; type: ADME, cell-based
T2 sequence (Q9Y6L6 whole entry): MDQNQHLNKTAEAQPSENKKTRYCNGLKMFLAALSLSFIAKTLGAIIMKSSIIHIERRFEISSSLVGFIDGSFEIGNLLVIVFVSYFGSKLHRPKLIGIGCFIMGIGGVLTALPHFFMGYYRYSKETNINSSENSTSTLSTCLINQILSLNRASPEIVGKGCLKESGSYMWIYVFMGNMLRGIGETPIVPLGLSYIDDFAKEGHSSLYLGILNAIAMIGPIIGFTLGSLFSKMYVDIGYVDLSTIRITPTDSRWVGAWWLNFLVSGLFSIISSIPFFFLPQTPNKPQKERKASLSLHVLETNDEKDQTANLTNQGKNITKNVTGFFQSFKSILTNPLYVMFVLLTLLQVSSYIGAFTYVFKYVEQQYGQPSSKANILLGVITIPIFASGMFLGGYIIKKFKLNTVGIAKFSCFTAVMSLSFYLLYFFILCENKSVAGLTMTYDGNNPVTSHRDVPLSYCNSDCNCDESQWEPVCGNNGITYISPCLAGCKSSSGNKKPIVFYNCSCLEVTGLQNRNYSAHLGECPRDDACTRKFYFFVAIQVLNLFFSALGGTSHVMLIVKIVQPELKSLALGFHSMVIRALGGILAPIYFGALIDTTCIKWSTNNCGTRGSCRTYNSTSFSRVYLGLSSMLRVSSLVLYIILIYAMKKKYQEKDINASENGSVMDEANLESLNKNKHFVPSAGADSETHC

[3] = target: T1, Solute carrier organic anion transporter family member 1B3; experiment: Inhibition of human liver OATP1B3 expressed in HEK293 Flp-In cells assessed as reduction in [3H]E17-betaG uptake incubated for 5 mins by scintillation counting; type: ADME, cell-based
[4] = target: T3, Solute carrier organic anion transporter family member 2B1 (Homo sapiens, UniProt O94956); experiment: Inhibition of human liver OATP2B1 expressed in HEK293 Flp-In cells assessed as reduction in [3H]E3S uptake at 20 uM incubated for 5 mins by scintillation counting; conditions: hek293, 5 min
T3 sequence (O94956 whole entry): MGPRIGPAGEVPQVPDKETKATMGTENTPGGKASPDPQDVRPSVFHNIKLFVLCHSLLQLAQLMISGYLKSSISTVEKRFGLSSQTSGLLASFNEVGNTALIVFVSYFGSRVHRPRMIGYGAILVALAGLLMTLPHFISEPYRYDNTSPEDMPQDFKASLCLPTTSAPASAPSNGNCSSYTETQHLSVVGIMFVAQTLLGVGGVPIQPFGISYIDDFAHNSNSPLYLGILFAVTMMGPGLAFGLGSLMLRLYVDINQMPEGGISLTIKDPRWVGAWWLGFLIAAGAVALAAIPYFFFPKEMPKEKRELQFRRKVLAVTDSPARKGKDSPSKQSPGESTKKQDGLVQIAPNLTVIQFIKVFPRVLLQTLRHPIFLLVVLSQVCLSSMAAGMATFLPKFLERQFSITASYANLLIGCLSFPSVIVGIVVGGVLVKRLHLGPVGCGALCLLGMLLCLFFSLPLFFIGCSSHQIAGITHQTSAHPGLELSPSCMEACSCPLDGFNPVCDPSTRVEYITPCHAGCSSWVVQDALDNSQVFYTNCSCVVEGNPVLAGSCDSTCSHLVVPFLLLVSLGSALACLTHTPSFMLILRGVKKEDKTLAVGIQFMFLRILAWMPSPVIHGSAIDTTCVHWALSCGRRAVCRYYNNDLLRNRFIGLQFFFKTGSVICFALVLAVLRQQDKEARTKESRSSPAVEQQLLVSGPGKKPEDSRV

[5] = target: T2, Solute carrier organic anion transporter family member 1B1; experiment: (§1) Inhibition of human liver OATP1B1 expressed in HEK293 Flp-In cells assessed as reduction in E17-betaG uptake at 20 uM by scintillation counting; conditions: hek293, 20 µM
OATP1B1 versus OATP1B3 = experiment: Selectivity index, ratio of IC50 for human liver OATP1B1 to IC50 for OATP1B3; conditions: read-out: Ratio IC50
[6] = target: T1, Solute carrier organic anion transporter family member 1B3; experiment: Activity at human liver OATP1B3 expressed in HEK293 Flp-In cells assessed as rate of compound transport per mg of protein; type: ADME, cell-based
OATP1B3 = target: T4, OATP1B3 (Homo sapiens, UniProt Q9NPD5); experiment: Activity at human liver OATP1B3 expressed in HEK293 Flp-In cells; type: ADME, cell-based; conditions: HEK293 Flp-In cells expressing OATP1B3
T4 sequence (Q9NPD5 whole entry): T1 sequence (Q9NPD5 whole entry)

OATP1B1 = target: T5, OATP1B1 (Homo sapiens, UniProt Q9Y6L6); experiment: as §1
T5 sequence (Q9Y6L6 whole entry): T2 sequence (Q9Y6L6 whole entry)

[7] = target: T1, Solute carrier organic anion transporter family member 1B3; experiment: Ratio of Vmax to Km for human liver OATP1B3 expressed in HEK293 Flp-In cells assessed per mg protein; type: ADME, cell-based
[8] = Fraction unbound in plasma; type: ADME, cell-free
[9] = target: T3, Solute carrier organic anion transporter family member 2B1; experiment: Inhibition of human liver OATP2B1 expressed in HEK293 Flp-In cells assessed as reduction in [3H]E3S uptake incubated for 5 mins by scintillation counting; type: ADME, cell-based
[10] = HEK293 Flp-In cells expressing OATP1B1, probe E17-betaG

Compound	INH [1] [%]	INH [4] [%]	inhibition at 20 µM (OATP1B1; [10]) [%]	further results
CC[C@]1(O)C[C@H]2CN(CCc3c([nH]c4ccccc34)[C@@](C(=O)OC)(c3cc4c(cc3OC)N(C=O)[C@H]3[C@@](O)(C(=O)OC)[C@H](OC(C)=O)[C@]5(CC)C=CCN6CC[C@]43[C@@H]65)C2)C1 [VINCRISTINE]	59.8	13		IC50 [2]: 44 µM; IC50 [3]: 11 µM; INH [5]: 3.9%; selectivity ratio (OATP1B1 versus OATP1B3): 4
C[C@]12CC[C@@H]3c4ccc(O)cc4CC[C@H]3[C@@H]1CC[C@@H]2O[C@@H]1O[C@H](C(=O)O)[C@@H](O)[C@H](O)[C@H]1O [ESTRADIOL 17B GLUCURONIDE]	69	-12.2	67.9	Vmax [6]: 10.12 pmol/min; Km (OATP1B3): 11.7 µM; Vmax/Km [7]: 0.86 µL/min
C[C@H](CCC(=O)NCCS(=O)(=O)O)[C@H]1CC[C@H]2[C@@H]3CC[C@@H]4C[C@H](O)CC[C@]4(C)[C@H]3C[C@H](O)[C@]12C [TAURODEOXYCHOLIC ACID]	61.4	85.3	81.7	
N[C@@H](Cc1cc(I)c(Oc2cc(I)c(O)c(I)c2)c(I)c1)C(=O)O [LEVOTHYROXINE]	11.4	63.7	-13.1	
S=C=NCCc1ccccc1 [PHENETHYLISOTHIOCYANATE]	12.3	-32	-16.4	
CC[C@H]1OC(=O)[C@H](C)[C@@H](O[C@H]2C[C@@](C)(OC)[C@@H](O)[C@H](C)O2)[C@H](C)[C@@H](O[C@@H]2O[C@H](C)C[C@H](N(C)C)[C@H]2O)[C@](C)(OC)C[C@@H](C)C(=O)[C@H](C)[C@@H](O)[C@]1(C)O [CLARITHROMYCIN]	53.8	5.1	73.1	
C#Cc1cccc(Nc2ncnc3cc(OCCOC)c(OCCOC)cc23)c1 [ERLOTINIB]	27.5	93.7		Cp(f) [8]: 400 nM; IC50 [9]: 0.55 µM; INH [5]: 10.6%
CC[C@H](C)C(=O)O[C@H]1C[C@H](O)C=C2C=C[C@H](C)[C@H](CC[C@@H](O)C[C@@H](O)CC(=O)O)[C@H]21 [PRAVASTATIN]	5.4	36.8		IC50 [2]: 3.6 µM; INH [5]: 52.2%
CCOc1ccc(-c2nc3cc(-c4nc5cc(N6CCN(C)CC6)ccc5[nH]4)ccc3[nH]2)cc1		12.7		IC50 [2]: 19 µM; inhibition at 20 µM (OATP1B1; hek293): 48.1%
C[n+]1ccc(-c2ccccc2)cc1	10.8	2.4	14.2	
COc1cccc2c1C(=O)c1c(O)c3c(c(O)c1C2=O)C[C@@](O)(C(=O)CO)C[C@@H]3O[C@H]1C[C@H](N)[C@H](O)[C@H](C)O1 [DOXORUBICIN]	26.6	49.9	-5.8	
CCN(CC)CCCC(C)Nc1ccnc2cc(Cl)ccc12 (configuration not stated) [CHLOROQUINE]	-7.2	23.5	-1.4	
CC1COc2c(N3CCN(C)CC3)c(F)cc3c(=O)c(C(=O)O)cn1c23 (configuration not stated) [OFLOXACIN]	24.5	18.4	-8.2	
N[C@@H]1C[C@H]1c1ccccc1.N[C@H]1C[C@@H]1c1ccccc1 (relative stereo) [TRANYLCYPROMINE]	-9.3	15.5		inhibition at 20 µM (OATP1B1; hek293): -9.5%
C[C@H](CCC(=O)NCC(=O)O)[C@H]1CC[C@H]2[C@@H]3[C@H](O)C[C@@H]4C[C@H](O)CC[C@]4(C)[C@H]3C[C@H](O)[C@]12C [GLYCOCHOLIC ACID]	29	-9.8	66.4	
C[n+]1ccccc1	-2.3	12.8	27.9	
